Earlier results on three molecules are cited in publication PMC3780389 (Experimental neurology, 2012).

One data set concerns 3x-Tg AD mice. The following applies: ref Green, et al., 2008, Hempen and Brion, 1996.
A further data set concerns hAPP Tg AD mice. The following applies: chronic administration, ref Ricobaraza, et al., 2011.
Data set [1] concerns APP23 transgenic mouse model of AD. The settings on record: ref Qing, et al., 2008.

As to `NC(=O)c1cccnc1` [nicotinamide], in the data set with 3x-Tg AD mice, the Thr231-phosphotau entry is “selectively decreases” and the “level of acetylated α-tubulin” value is on record as “increases”.
Take “sodium 4-phenylbutyrate [sodium 4-phenylbutyrate (4-PBA)]”: the Aβ levels result in the data set on hAPP Tg AD mice is “decreased Aβ levels”.
Regarding `CCCC(CCC)C(=O)O` [Valproic acid], in data set [1], the Aβ plaque number result was “significantly reduce Aβ plaque number”.
